Tests used:
[1] = tested on: mature miR-210; experiment: Mature miR-210 levels in hypoxic MDA-MB-231 cells by RT-qPCR; format: cell-based
Method: (§1) MDA-MB-231 (HTB-26; ATCC) cells were cultured in Roswell Park Memorial Institute (RPM I) 1640 media with L-glutamine & 25 mM HEPES (Corning) supplemented with 10% fetal bovine serum (FBS) (Sigma) and 1×Penicillin Streptomycin Solution (Corning). Cells cultured in normoxia were maintained at 37° C. in ambient atmosphere (˜21% O2) with 5% CO2. Cells cultured in hypoxia were maintained at 37° C., <1% O2 in a nitrogen filled hypoxic chamber (Billups-Rothenberg, Inc.), and 5% CO2. Cells were directly purchased from ATCC, but were not authenticated.
(§2) For compound treatment (TGP-210, TGP-210-RL, LNA-210, Scr-LNA), compound stocks in DMSO or water were diluted in growth medium and added to cells for 24-48 h. […]
(§3) MDA-MB-231 cells were treated in normoxic or hypoxic conditions for 24-48 h, as described above in the Experimental Model and Subject Details section. […] RNA expression levels were determined using the ΔΔCt method and normalized using 18S ribosomal RNA or U6 small nuclear RNA as housekeeping genes. […] Upon treatment with chimeric compound TGP-210-RL, relative cleavage levels were calculated according to equation 1A (Eq. 1A) in order to control for the effect of parent compound TGP-210, on pre-miR-210 expression: […]

[2] = tested on: pre-miR-210; experiment: pre-miR-210 levels / cleavage in hypoxic MDA-MB-231 cells by RT-qPCR; format: cell-based
Method: as §1, §2, §3

[3] = tested on: triple negative breast cancer; details: triple negative breast cancer mouse model; cited from earlier work

## Targapremir-210 [TGP-210]
[1]
  Levels of mature miR-210: decreased
[2]; constant TGP-210-RL, increasing amounts of TGP-210
  Cleavage of pre-miR-210 by TGP-210-RL upon addition of TGP-210: caused a decrease in cleavage of pre-miR-210
[2]; hypoxic MDA-MB-231 cells
  pre-miR-210 levels: increase
[3]
  Tumor growth: inhibited tumor growth
